Measurements reported in PubChem BioAssay (NCI).
Values joined by “and” are separate entries in the source; they are usually repeats but may differ in a detail not shown here. Equal values may be shown once.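 96-well plates; 48 h exposure; 5 concentrations. Endpoints by linear interpolation between flanking doses. Not reached: highest tested concentration assigned. Abbreviation: GI50, concentration required for 50% inhibition of growth. At the TGI there is no net growth.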

What follows are compounds tested on SF-268 CNS (assay: NCI tumour cell line growth inhibition, 48 h).
`O=C1/C(=C/c2cccc(Cl)c2Cl)N=C(c2ccccc2)N1C1CC1` gave a GI50 of 10.3 µM and a TGI of 22.3 µM. In the case of `CCOC(=O)C(=[N+]=[N-])[Si](C)(C)C`, the TGI was 59.7 µM. For `Cc1c2c(C#N)nccc2c(C)c2c1c1ccccc1n2Cc1ccccc1`, the TGI was > 100 µM. In the case of `COc1ccc(-c2nn(-c3ccc(NC(=O)c4ccc(Cl)c(Cl)c4)cc3)cc2-c2ccncc2)cc1Cl`, the GI50 was 4.25 µM and the TGI was > 50 µM. `CN(C)C(n1cc2c(c1)-c1ccc(Cl)cc1C(c1ccccc1F)=NC2)n1cc2c(c1)-c1ccc(Cl)cc1C(c1ccccc1F)=NC2` was tested, and the TGI was > 100 µM. In the case of `CCCc1nc(NC#N)nc(C(=O)Nc2ccccc2)c1CC`, the TGI was > 100 µM. In the case of `O=C(CCc1n[nH]c(=S)o1)Nc1ccccc1C(F)(F)F`, the TGI was > 100 µM. `COc1cc2c(cc1OCCCNC(=O)c1cccc3c(=O)c4ccccc4[nH]c13)N=C[C@@H]1CCCN1C2=O` was tested, and the GI50 was < 0.0216 µM and the TGI was 2.07 µM. In the case of `Cc1ccc(NC(=O)CCc2cc(C(C)(C)C)nc(=S)[nH]2)cc1C`, the TGI was > 100 µM. `Cc1[nH]c2ccccc2c1C(=O)/C=C/c1ccccc1O` was tested, and the TGI was > 100 µM. In the case of `O=C(Nc1nc(=S)c2c(ncn2CCOC(=O)c2ccccc2)[nH]1)c1ccccc1`, the TGI was 39.3 µM. With `COc1ccc(CC2NCCc3c2[nH]c2ccccc32)cc1` (configuration not stated) the TGI was > 100 µM. `CCOc1ccc(NC(=O)CC#N)cc1` was tested, and the TGI was > 100 µM. For `O=C(/C=C/c1cccc2ccccc12)c1ccccc1Cl`, the TGI was 36.5 µM. `COc1ccc(Nc2nnc(-c3cc(O)ccc3O)s2)cc1` was tested, and the GI50 was 16.3 µM and the TGI was > 50 µM. For `Cc1ccc(/C=C/C(=O)c2sc(-c3nc(C)c(C(=O)/C=C/c4ccc(C)cc4)s3)nc2C)cc1`, the TGI was > 100 µM. `O=C1/C(=C/c2ccc(Cl)cc2)CCC1CCN1CCOCC1` (configuration not stated) was tested, and the TGI was > 100 µM. Compound `Cn1cc(-c2csc(-c3c[nH]c4ccc(F)cc34)n2)c2cnccc21` has a GI50 of 1.94 µM and a TGI of 3.58 µM. Work on `CCC[CH2][Sn]([Cl])([CH2]CCC)[CH2]CCC` yielded a GI50 of 0.148 µM and a TGI of 0.314 µM. With `O=c1ccn([C@H]2CSC[C@@H](CO)C2)c(=O)[nH]1` the TGI was > 100 µM. In the case of `COc1cc(-n2cc(-c3ccc(F)cc3)[nH]c2=O)cc(OC)c1OC`, the GI50 was > 100 µM and the TGI was > 100 µM.

The compounds below were run on DU-145 prostate (assay: NCI tumour cell line growth inhibition, 48 h).
`CN(C)CC[PH+](c1ccccc1)c1ccccc1.CN(C)CC[PH+](c1ccccc1)c1ccccc1.[Cl-].[Pd+2]` was tested, and the GI50 was > 100 µM and the TGI was > 100 µM. With `COc1cc(NCc2ccc3nc(N)nc(N)c3c2C)cc(OC)c1OC` (tested in a mixture with another compound) the GI50 was 0.172 µM and 0.025 µM and the TGI was 38.2 µM. `Cc1nn(-c2ccc(Cl)cc2)c2nc3c(nc12)C(=O)c1ccccc1-3` was tested, and the GI50 was > 100 µM and the TGI was > 100 µM. `O=C(c1ccccc1Br)C(F)(F)F` was tested, and the TGI was > 100 µM. For `CCCC(=O)Nc1cc2c3c(c1)CCCN3CCC2`, the TGI was > 10 µM. In the case of `O=C1C=CC(=O)c2cc3cc(CBr)ccc3cc21`, the GI50 was 2.35 µM and the TGI was 6.54 µM. In the case of `COc1cc(F)ccc1-c1ncnc(Nc2cccc(CS(C)(=N)=O)c2)n1` (configuration not stated), the GI50 was 0.784 µM and the TGI was > 100 µM. `[Cl][Hg][c]1cc[c]([Hg][Cl])o1` was tested, and the GI50 was 3.81 µM and the TGI was 16.1 µM. In the case of `O=C1/C(=C/c2cccc(Cl)c2Cl)N=C(c2ccccc2)N1C1CC1`, the GI50 was 12.1 µM and the TGI was 29.4 µM. With `Cc1c2c(C#N)nccc2c(C)c2c1c1ccccc1n2Cc1ccccc1` the TGI was > 100 µM. With `COc1ccc(-c2nn(-c3ccc(NC(=O)c4ccc(Cl)c(Cl)c4)cc3)cc2-c2ccncc2)cc1Cl` the GI50 was > 50 µM and the TGI was > 50 µM. With `CN(C)C(n1cc2c(c1)-c1ccc(Cl)cc1C(c1ccccc1F)=NC2)n1cc2c(c1)-c1ccc(Cl)cc1C(c1ccccc1F)=NC2` the TGI was > 100 µM. For `COc1cc2c(cc1OCCCNC(=O)c1cccc3c(=O)c4ccccc4[nH]c13)N=C[C@@H]1CCCN1C2=O`, the GI50 was < 0.01 µM and the TGI was 13.5 µM. `COc1ccc(Nc2nnc(-c3cc(O)ccc3O)s2)cc1` was tested, and the GI50 was > 50 µM and the TGI was > 50 µM. `Cn1cc(-c2csc(-c3c[nH]c4ccc(F)cc34)n2)c2cnccc21` showed a GI50 of 1.8 µM and a TGI of 3.28 µM. With `COc1cc(-n2cc(-c3ccc(F)cc3)[nH]c2=O)cc(OC)c1OC` the GI50 was > 100 µM and the TGI was > 100 µM.

What follows are compounds tested on OVCAR-5 ovarian (assay: NCI tumour cell line growth inhibition, 48 h).
In the case of `CN(C)CC[PH+](c1ccccc1)c1ccccc1.CN(C)CC[PH+](c1ccccc1)c1ccccc1.[Cl-].[Pd+2]`, the GI50 was > 100 µM and the TGI was > 100 µM. `COc1cc(NCc2ccc3nc(N)nc(N)c3c2C)cc(OC)c1OC` (tested in a mixture with another compound) gave a GI50 of 0.0287 µM and a TGI of 35.9 µM. For `Cc1nn(-c2ccc(Cl)cc2)c2nc3c(nc12)C(=O)c1ccccc1-3`, the GI50 was > 100 µM and the TGI was > 100 µM. In the case of `O=C(c1ccccc1Br)C(F)(F)F`, the TGI was > 100 µM. With `COc1ccc(NC(=O)/C(Cc2cc(=O)oc3cc(O)ccc23)=N\NC(C)(C)C)c(OC)c1` the TGI was > 100 µM. With `O=C1/C(=C/c2ccc3c(c2)OCO3)SC2C=Nc3ccccc3N12` (configuration not stated) the TGI was > 100 µM. For `CCOc1ccc(NC(=O)C(=O)CC(=O)c2c(C)n([O-])c3ccccc3[n+]2=O)cc1`, the TGI was > 100 µM. For `CCCC(=O)Nc1cc2c3c(c1)CCCN3CCC2`, the TGI was > 10 µM. For `Cc1cc(Cl)ccc1NC(=O)C(=O)Cc1nc2ccccc2o1`, the TGI was > 100 µM. With `OCC1OC(c2nc(C3=NCCCN3)cs2)C(O)C1O` (configuration not stated) the TGI was > 100 µM. With `O=C1C=CC(=O)c2cc3cc(CBr)ccc3cc21` the GI50 was 9.96 µM and the TGI was 33.6 µM. With `CCC(C)COC(=O)c1ccc(N=Cc2ccc(C=Nc3ccc(C(=O)OCC(C)CC)cc3)cc2)cc1` (configuration not stated) the TGI was > 100 µM. For `COc1cc(F)ccc1-c1ncnc(Nc2cccc(CS(C)(=N)=O)c2)n1` (configuration not stated), the GI50 was 0.827 µM and the TGI was > 100 µM. For `Cc1cc(N(CCC#N)CCC#N)ccc1N=Nc1ccc(C(=O)O)cc1`, the TGI was > 100 µM. With `[Cl][Hg][c]1cc[c]([Hg][Cl])o1` the GI50 was 7.17 µM and the TGI was 23.9 µM. `CN(C)CC1CCCC/C1=N/OC(=O)c1ccc(Cl)cc1` (configuration not stated) was tested, and the TGI was > 100 µM. With `N#CC(C(=O)C(=O)C(C#N)c1ccc(Br)cc1)c1ccc(Br)cc1` (configuration not stated) the TGI was 32.1 µM. In the case of `COc1cccc(C2=NC(C(C)C)CO2)c1` (configuration not stated), the TGI was > 100 µM. For `O=C1/C(=C/c2cccc(Cl)c2Cl)N=C(c2ccccc2)N1C1CC1`, the GI50 was 10.4 µM and the TGI was 21.1 µM. With `CCOC(=O)C(=[N+]=[N-])[Si](C)(C)C` the TGI was > 100 µM. For `Cc1c2c(C#N)nccc2c(C)c2c1c1ccccc1n2Cc1ccccc1`, the TGI was > 100 µM. `COc1ccc(-c2nn(-c3ccc(NC(=O)c4ccc(Cl)c(Cl)c4)cc3)cc2-c2ccncc2)cc1Cl` was tested, and the GI50 was 3.24 µM and the TGI was > 50 µM. With `CN(C)C(n1cc2c(c1)-c1ccc(Cl)cc1C(c1ccccc1F)=NC2)n1cc2c(c1)-c1ccc(Cl)cc1C(c1ccccc1F)=NC2` the TGI was > 100 µM. With `CCCc1nc(NC#N)nc(C(=O)Nc2ccccc2)c1CC` the TGI was > 100 µM. `O=C(CCc1n[nH]c(=S)o1)Nc1ccccc1C(F)(F)F` was tested, and the TGI was > 100 µM. For `COc1cc2c(cc1OCCCNC(=O)c1cccc3c(=O)c4ccccc4[nH]c13)N=C[C@@H]1CCCN1C2=O`, the GI50 was < 0.01 µM and the TGI was 30.6 µM. `Cc1ccc(NC(=O)CCc2cc(C(C)(C)C)nc(=S)[nH]2)cc1C` was tested, and the TGI was > 100 µM. For `Cc1[nH]c2ccccc2c1C(=O)/C=C/c1ccccc1O`, the TGI was > 100 µM. In the case of `O=C(Nc1nc(=S)c2c(ncn2CCOC(=O)c2ccccc2)[nH]1)c1ccccc1`, the TGI was > 100 µM. In the case of `COc1ccc(CC2NCCc3c2[nH]c2ccccc32)cc1` (configuration not stated), the TGI was > 100 µM. `CCOc1ccc(NC(=O)CC#N)cc1` was tested, and the TGI was > 100 µM. For `COc1ccc(Nc2nnc(-c3cc(O)ccc3O)s2)cc1`, the GI50 was > 50 µM and the TGI was > 50 µM. For `Cc1ccc(/C=C/C(=O)c2sc(-c3nc(C)c(C(=O)/C=C/c4ccc(C)cc4)s3)nc2C)cc1`, the TGI was > 100 µM. `O=C1/C(=C/c2ccc(Cl)cc2)CCC1CCN1CCOCC1` (configuration not stated) was tested, and the TGI was > 100 µM. Work on `Cn1cc(-c2csc(-c3c[nH]c4ccc(F)cc34)n2)c2cnccc21` yielded a GI50 of 1.91 µM and a TGI of 3.36 µM. `CCC[CH2][Sn]([Cl])([CH2]CCC)[CH2]CCC` was tested, and the GI50 was 0.117 µM and the TGI was 0.248 µM. With `O=c1ccn([C@H]2CSC[C@@H](CO)C2)c(=O)[nH]1` the TGI was > 100 µM. In the case of `COc1cc(-n2cc(-c3ccc(F)cc3)[nH]c2=O)cc(OC)c1OC`, the GI50 was > 100 µM and the TGI was > 100 µM. In the case of `C1CN2CCN3CCN4CCN1[P+]243`, the TGI was > 100 µM.

What follows are compounds tested on CAKI-1 renal (assay: NCI tumour cell line growth inhibition, 48 h).
For `CN(C)CC[PH+](c1ccccc1)c1ccccc1.CN(C)CC[PH+](c1ccccc1)c1ccccc1.[Cl-].[Pd+2]`, the GI50 was > 100 µM and the TGI was > 100 µM. In the case of `Cc1nn(-c2ccc(Cl)cc2)c2nc3c(nc12)C(=O)c1ccccc1-3`, the GI50 was > 100 µM and the TGI was > 100 µM.
